Columns and labels:
Cynomolgus monkey = settings: in vivo, po, 10 mg/kg
[1] = Dissociation constant, pKa of the compound; format: physicochemical
in vivo = settings: rat, iv
[2] = AUC in male rat at 2000 mg/kg/day, iv; format: ADME, organism-based; parameters: route intravenous; settings: plasma
[3] = AUC in female rat at 2000 mg/kg/day, iv; format: ADME, organism-based; parameters: route intravenous; settings: plasma
[4] = AUC in male dog at 250 mg/kg/day, iv; format: ADME, organism-based, Canis lupus familiaris; parameters: route intravenous; settings: plasma
[5] = AUC in female dog at 250 mg/kg/day, iv; format: ADME, organism-based, Canis lupus familiaris; parameters: route intravenous; settings: plasma

SMILES | clearance (in vivo) [mL/min/kg] | other results
Cc1nc2ccccc2n1C1CC2CCC(C1)N2CCC1(c2cccc(F)c2)CCN(C(=O)c2cc(NS(C)(=O)=O)c(F)cc2Cl)CC1 (centres undefined) | – | AUC/dose (Cynomolgus monkey): 59 ng·h/mL
Cc1nc2ccccc2n1[C@H]1C[C@H]2CC[C@@H](C1)N2CCC1(c2ccccc2)CCN(C(=O)C(C)(C)C)CC1 | – | pKa [1]: 10.7
Cc1nc2ccccc2n1C1CC2CCC(C1)N2CC(=O)C1(c2ccccc2)CCN(C(=O)C(C)(C)C)CC1 (centres undefined) | – | pKa [1]: 6.37
Cc1nc2ccccc2n1C1CC2CCC(C1)N2CCC1(c2cccc(F)c2)CCN(C(=O)C(C)(C)C)CC1 (centres undefined) | 24 | –
Cc1nc2ccccc2n1C1CC2CCC(C1)N2CCC1(c2cccc(F)c2)CCN(C(=O)C2(C(=O)O)CCC2)CC1 (centres undefined) | 136 | –
Cc1nc2ccccc2n1C1CC2CCC(C1)N2CCC1(c2ccccc2)CCN(C(=O)c2ccccc2C(=O)O)CC1 (centres undefined) | 114 | –
Cc1nc2ccccc2n1C1CC2CCC(C1)N2CCC1(c2ccccc2)CCN(C(=O)c2cccc(C(=O)O)c2)CC1 (centres undefined) | 62 | –
Cc1nc2ccccc2n1C1CC2CCC(C1)N2CCC1(c2ccccc2)CCN(C(=O)C(C)(C)c2nnn[nH]2)CC1 (centres undefined) | 156 | –
Cc1nc2ccccc2n1C1CC2CCC(C1)N2CCC1(c2ccccc2)CCN(C(=O)C(C)(C)C(=O)NS(C)(=O)=O)CC1 (centres undefined) | 53 | –
Cc1nc2ccccc2n1C1CC2CCC(C1)N2CCC1(c2ccccc2)CCN(C(=O)c2ccc3c(c2)CC(=O)NS3(=O)=O)CC1 (centres undefined) | 26 | –
Cc1nc2ccccc2n1C1CC2CCC(C1)N2CCC1(c2ccccc2)CCN(C(=O)c2ccc(Cl)c(S(N)(=O)=O)c2)CC1 (centres undefined) | 31 | –
Cc1nc2ccccc2n1C1CC2CCC(C1)N2CCC1(c2cccc(F)c2)CCN(C(=O)c2ccc(Cl)c(S(N)(=O)=O)c2)CC1 (centres undefined) | 26.8 | –
Cc1cccc(C2(CCN3C4CCC3CC(n3c(C)nc5ccccc53)C4)CCN(C(=O)c3ccc(Cl)c(S(N)(=O)=O)c3)CC2)c1 (centres undefined) | 28.3 | –
CNS(=O)(=O)c1cc(C(=O)N2CCC(CCN3C4CCC3CC(n3c(C)nc5ccccc53)C4)(c3cccc(F)c3)CC2)c(Cl)cc1F (centres undefined) | – | AUC [2]: 77000 ng·h/mL; AUC [3]: 160000 ng·h/mL; AUC [4]: 17200 ng·h/mL; AUC [5]: 34900 ng·h/mL; AUC/dose (Cynomolgus monkey): 38 ng·h/mL
Cc1nc2ccccc2n1C1CC2CCC(C1)N2CCC1(c2cccc(F)c2)CCN(C(=O)c2c(F)ccc(NS(C)(=O)=O)c2F)CC1 (centres undefined) | – | AUC/dose (Cynomolgus monkey): 19.9 ng·h/mL

Reference: ChEMBL document CHEMBL1781974, “Novel 4,4-disubstituted piperidine-based C-C chemokine receptor-5 inhibitors with high potency against human immunodeficiency virus-1 and an improved human ether-a-go-go related gene (hERG) profile” (J Med Chem, 2011)
